Publication PMC7459852, “Identification of 6-(piperazin-1-yl)-1,3,5-triazine as a chemical scaffold with broad anti-schistosomal activities” (Wellcome Open Research, 2020)
Where two headings read alike, the source gives them in different places.

Assays:
[1] = tested on: schistosomula and adult schistosomes; design: method as in PMID 31730617; conditions: SGC collection tested by the authors' laboratory; cited from earlier work
S. mansoni schistosomula = assay: Schistosomula screens (Roboworm, phenotype and motility); assay type: cell-based, Schistosoma mansoni; conditions: 72 h; for EC50: Schistosoma mansoni
Experimental: Anthelmintic activity on the schistosomula stage of S. mansoni was evaluated using Roboworm, an integrated high-throughput, high content image analysis platform originally developed by Paveley et al. and subsequently used by our research group as previously described, [28], [50], [51]. Alternatively, the computer application Worminator can be used to assess motion of microscopic parasites such as the schistosomula stage of S. mansoni. Compounds (as single concentration or two-fold titrations) were prepared for screening in a 384-well plate (PerkinElmer, MA, USA), where solutions (1.6 mM, 0.5 μl) were wet stamped using the Biomek NX ^P liquid handling platform into Basch medium (20 μl). Negative (0.625% DMSO) and positive (Auranofin - AUR - at 10 µM final concentration in 0.625% DMSO) control wells were similarly prepared. Mechanically transformed schistosomula (about 120 parasites in 60 μl of Basch medium) were distributed into each treated well using a WellMate (Thermo Scientific, Loughborough, UK). Schistosomula/compound co-cultures were then incubated at 37°C for 72 h in a humidified atmosphere containing 5% CO 2. At 72 h, parasite/compound co-cultures were resuspended and tissue culture plates were imaged under the same conditions (37°C for 72 h in a humidified atmosphere containing 5% CO 2) using an ImageXpressXL high content imager (Molecular Devices, UK) with subsequent images processed for phenotype and motility as previously reported. Plate analysis returned a phenotype and motility score for each well and any scores below -0.15 and -0.35 (defined threshold anti-schistosomula values for phenotype and motility scores, respectively) defined a condition displaying anti-schistosomula activity. Compound screens were assessed based on the Z´ values (derived from the means and standard deviations of positive and negative controls) and those equal to or above 0.3 for both phenotype and motility were considered successful.
Phenotype and motility scores of each titration were used to generate dose response curves in GraphPad Prism 7.02 based on the corrected average score of the three replicates for each data point.

S. mansoni adult worms = assay: Adult worm screens (WormassayGP2 motility, egg count); assay type: cell-based, Schistosoma mansoni; conditions: 72 h; for adult worm egg production / adult worm motility compared to compound 7: 12.5 µM; for adult worm motility and oviposition: 6.25 µM, compared to compound 7
Experimental: For compound screening, adult worms (three worm pairs/well for compound 7 and the hit compounds of set two; one worm pair/well for the hit compounds of set three) were transferred into wells of a 48-well tissue culture plate containing 1 ml of adult worm media. Adult worms were treated with compounds previously identified as hits at 10 µM on 72 h cultured schistosomula. Worms were dosed with an appropriate volume of 10 mM stock solution of each compound (in DMSO) to have a concentration range of 50 – 6.25 µM (up to 0.5% DMSO, primary screen of compound 7). Secondary screens were performed on the structural analogues of compound 7 (only the schistosomula hits at 10 µM) at a single concentration (12.5 µM) and compared to the same concentration of the parental compound (included in the screen as reference). DMSO (0.5%) and praziquantel (10 µM in 0.5% DMSO) were also included as negative and positive control treatments (both primary and secondary screens). Treated adult worms were incubated for 72 h in a humidified environment at 5% CO 2 at 37°C. Parasite motility after drug treatment was assessed by a digital image processing-based system (WormassayGP2, see Software availability) modified after Wormassay, [56], [57]. Egg production was assessed according to the methodology described by Edwards et al..

[2] = MTT cytotoxicity assay on HepG2 cells; assay type: cell-based, Human; conditions: human, HepG2 cells, MTT, 24 h; three dose response titrations (200 - 1 µM)
Experimental: (§1) Compound cytotoxicity on Human Hepatocyte Carcinoma (HepG2) cells (85011430, Sigma Aldrich) was elucidated by the MTT (3-(4,5-dimethylthiazol-2-yl)-2,5-diphenyltetrazolium bromide) tetrazolium reduction assay as previously described, [28], [50]. Briefly, HepG2 cells were seeded at a density of 20,000 per well in 96-well black, clear bottom falcon plate in modified BME medium (50 μl; containing 1% antibiotic/mycotic (Sigma-Aldrich, Gillingham, UK), 1% 200 mM L-glutammine (Gibco, Paisley, UK), 1% MEM non-essential amino acid solution (Gibco, Paisley, UK), and 10% fetal bovine serum (Gibco, Paisley, UK)). HepG2 plates seeded for cytotoxicity screens were treated with compounds 24 h post-seeding. Each compound was tested at 200, 100, 75, 50, 20, 10 and 1 µM; each concentration was assayed in triplicate. Blank wells (no cells), as well as positive (1% v/v Triton X-100, X100, Sigma-Aldrich) and negative (1.25% v/v DMSO or media only) controls, were included in each plate. After addition of compounds, each plate was then incubated for a further 20 h before application of MTT reagent for assessment of compound cytotoxicity (4 h incubation with MTT for a total 24 h cell-drug incubation). The absorbance reading at 570 nm was measured with a POLARstar Omega (BMG Labtech, UK) microtiter plate reader. Dose response curves were generated in GraphPad Prism 7.02 based on the corrected average absorbance of the three replicates for each concentration point.

S. mansoni miracidia = assay: Miracidia to sporocyst transformation screens; assay type: cell-based, Schistosoma mansoni; conditions: 10 µM, 48 h
Experimental: Following hatching of S. mansoni eggs, miracidia were incubated on ice for 15 min and then centrifuged at 700 x g for 5 min at 4°C. The miracidia pellet was then re-suspended in 5 ml of Chernin's balanced salt solution (CBSS), subjected to pelleting and two subsequent washes (all at 700 x g for 5 min at 4°C). Afterwards, the supernatant was carefully removed with a serological pipette and the miracidia-enriched pellet was resuspended with CBSS supplemented with 1 mg/ml each of glucose and trehalose and 500 µl of Penicillin-Streptomycin (containing 10,000 units penicillin and 10 mg streptomycin/ml, P4333, Sigma-Aldrich). In preparation for the screens, CBSS (250 µl) was aliquoted to each well of a 24-well plate followed by addition of each compound in DMSO (1 mM concentration in 1% DMSO) or DMSO alone (1%, negative control). Next, approximately 20-25 miracidia (in 250 µl of CBSS) were aliquoted to each well. […] Both preliminary and secondary screens were performed in duplicate on two separate occasions (two independent biological replicates). Miracidia were incubated for 48 h at 26°C before being evaluated using an Olympus inverted light microscope for morphological and behavioural changes differing from the control wells. Dead, partially transformed and fully transformed miracidia were enumerated in the DMSO control and the assay plates as previously described, [23], [59]. […] Absence of ciliated plates attached to the surface of the parasite and formation of sporocyst tegument defined the so-called “fully transformed” parasites.

HepG2 cells = assay: MTT cytotoxicity assay on HepG2 cells; assay type: cell-based, Human; conditions: dose response titration
Experimental: as §1

[3] = average of phenotype and motility metrics, read-out: Schistosomula EC50 Average
[4] = dose response titrations (10 - 0.625 µM), read-out: Schistosomula EC50 Motility
[5] = dose response titrations (10 - 0.625 µM), read-out: Schistosomula EC50 Phenotype

## CCN(C(=O)CO)[C@H]1CN(/C(=N\C#N)Nc2cccc(OC(F)F)c2)N=C1c1ccc(Cl)c(Cl)c1 [BAY-598]
[1]
  activity on schistosomula and adult schistosomes: potent activities

## O=C1CNC(=O)/C1=C\Nc1ccc(O)cc1 [Compound 4]
S. mansoni schistosomula; 50 µM
  anti-schistosomula activity (hit on phenotype and motility): showed anti-schistosomal activity
  schistosomula phenotype induced: elongated phenotype

## c1ccc(Nc2nc(Nc3ccccc3)nc(N3CCNCC3)n2)cc1 [Compound 8]
S. mansoni adult worms
  adult worm egg production: reducing egg production similarly to compound 7
  adult worm motility compared to compound 7: more potent than the original hit compound
[2]
  CC50 at 24 h: 14.9 µM
S. mansoni schistosomula; [3]
  EC50: 4.12 µM
S. mansoni schistosomula; [4]
  EC50: 4.98 µM
S. mansoni schistosomula; [5]
  EC50: 3.27 µM
S. mansoni miracidia
  effect on miracidia: readily killed miracidia

## C1CN(c2nc(N3CCOCC3)nc(N3CCOCC3)n2)CCN1 [Compound 10]
S. mansoni schistosomula; [3]
  EC50: > 50 µM
S. mansoni schistosomula; [4]
  EC50: > 50 µM
S. mansoni schistosomula; [5]
  EC50: > 50 µM

## c1ccc2sc(N3CCN(c4nc(N5CCOCC5)nc(N5CCOCC5)n4)CC3)nc2c1 [Compound 11]
S. mansoni schistosomula; [3]
  EC50: > 50 µM
S. mansoni schistosomula; [4]
  EC50: > 50 µM
S. mansoni schistosomula; [5]
  EC50: > 50 µM

## c1ccc(CNc2nc(Nc3ccccc3)nc(N3CCNCC3)n2)cc1 [Compound 12]
S. mansoni adult worms
  adult worm egg production: reducing egg production similarly to compound 7
  adult worm motility compared to compound 7: more potent than the original hit compound
[2]
  CC50 at 24 h: 11 µM
S. mansoni schistosomula; [3]
  EC50: 4.49 µM
S. mansoni schistosomula; [4]
  EC50: 4.41 µM
S. mansoni schistosomula; [5]
  EC50: 4.57 µM
S. mansoni miracidia
  effect on miracidia: readily killed miracidia

## Cc1ccccc1Nc1nc(Nc2ccccc2C)nc(N2CCNCC2)n1 [Compound 13]
[2]
  CC50 at 24 h: 17.9 µM
S. mansoni schistosomula; [3]
  EC50: 4.76 µM
S. mansoni schistosomula; [4]
  EC50: 4.82 µM
S. mansoni schistosomula; [5]
  EC50: 4.7 µM
S. mansoni miracidia
  effect on miracidia: readily killed miracidia

## Cc1ccccc1Nc1nc(N2CCNCC2)nc(N2CCOCC2)n1 [Compound 14]
S. mansoni schistosomula; 50 µM
  anti-schistosomula activity (hit on phenotype and motility): only active at 50 µM
S. mansoni schistosomula; [3]
  EC50: > 10 µM
S. mansoni schistosomula; [4]
  EC50: > 10 µM
S. mansoni schistosomula; [5]
  EC50: > 10 µM

## Cc1ccc(Nc2nc(N3CCNCC3)nc(N3CCOCC3)n2)cc1 [Compound 15]
S. mansoni adult worms
  adult worm egg production: reducing egg production similarly to compound 7
  adult worm motility compared to compound 7: more potent than the original hit compound
[2]
  CC50 at 24 h: 23.9 µM
S. mansoni schistosomula; [3]
  EC50: 1.44 µM
S. mansoni schistosomula; [4]
  EC50: 1.79 µM
S. mansoni schistosomula; [5]
  EC50: 1.09 µM
S. mansoni miracidia
  effect on miracidia: all readily killed miracidia except for compounds 15 and 16

## C1CCN(c2nc(N3CCCC3)nc(N3CCNCC3)n2)C1 [Compound 17]
S. mansoni schistosomula; 50 µM
  anti-schistosomula activity (hit on phenotype and motility): active at the highest concentration
S. mansoni schistosomula; [4]
  EC50: > 10 µM
S. mansoni schistosomula; [5]
  EC50: > 10 µM

## O=S(=O)(c1ccc(Cl)cc1)N1CCN(c2nc(N3CCCCC3)nc(N3CCCCC3)n2)CC1 [Compound 18]
S. mansoni schistosomula; [3]
  EC50: > 50 µM
S. mansoni schistosomula; [4]
  EC50: > 50 µM
S. mansoni schistosomula; [5]
  EC50: > 50 µM

## O=C(c1ccc(Cl)cc1)N1CCN(c2nc(N3CCCCC3)nc(N3CCCCC3)n2)CC1 [Compound 19]
S. mansoni schistosomula; [3]
  EC50: > 50 µM
S. mansoni schistosomula; [4]
  EC50: > 50 µM
S. mansoni schistosomula; [5]
  EC50: > 50 µM

## CC(=O)Nc1ccc(S(=O)(=O)N2CCN(c3nc(N4CCCCC4)nc(N4CCCCC4)n3)CC2)cc1 [Compound 20]
S. mansoni adult worms
  adult worm motility and oviposition: strong anthelmintic activities
  adult worm egg production: greater potency than compound 7
  adult worm motility compared to compound 7: greater potency than compound 7
[2]
  CC50 at 24 h: > 100 µM
HepG2 cells
  cytotoxicity on HepG2 cells (in words): not toxic to this cell line, except for concentrations above 100 µM
S. mansoni schistosomula; 50 µM
  anti-schistosomula activity (hit on phenotype and motility): active at the highest concentration
S. mansoni schistosomula; [4]
  EC50: 4.93 µM
S. mansoni schistosomula; [5]
  EC50: 3.47 µM
S. mansoni miracidia
  effect on miracidia: readily killed miracidia

## O=[N+]([O-])c1ccc2nc(N3CCN(c4nc(N5CCOCC5)nc(N5CCOCC5)n4)CC3)sc2c1 [Compound 21]
S. mansoni schistosomula; [3]
  EC50: > 50 µM
S. mansoni schistosomula; [4]
  EC50: > 50 µM
S. mansoni schistosomula; [5]
  EC50: > 50 µM

## c1ccc(Nc2nc(N3CCNCC3)nc(N3CCOCC3)n2)cc1 [Compound 22]
[2]
  CC50 at 24 h: 93.5 µM
S. mansoni schistosomula; 50 µM
  anti-schistosomula activity (hit on phenotype and motility): active at the highest concentration
S. mansoni schistosomula; [4]
  EC50: 1.64 µM
S. mansoni schistosomula; [5]
  EC50: 2.09 µM

## Cc1ccc(Nc2nc(N3CCNCC3)nc(N3CCN(c4ccccc4)CC3)n2)cc1 [Compound 24]
S. mansoni adult worms
  adult worm motility and oviposition: the most potent
  adult worm egg production: greater potency than compound 7
  adult worm motility compared to compound 7: greater potency than compound 7
HepG2 cells
  cytotoxicity on HepG2 cells (in words): showed the highest toxicity
S. mansoni schistosomula; 50 µM
  anti-schistosomula activity (hit on phenotype and motility): active at the highest concentration
S. mansoni schistosomula; [4]
  EC50: 1.81 µM
S. mansoni schistosomula; [5]
  EC50: 1.57 µM
S. mansoni miracidia
  effect on miracidia: readily killed miracidia

## Clc1cc2c(NC3CCCC3)nnc(-c3ccncc3)c2cc1Cl [Compound A-196]
[1]
  activity on schistosomula and adult schistosomes: potent activities

## CCCc1cc(C)[nH]c(=O)c1CNC(=O)c1cc(-c2ccnc(N3CCN(C)CC3)c2)cc2c1cnn2C(C)C [GSK343]
[1]
  activity on schistosomula and adult schistosomes: potent activities

## COc1cc(C(=O)N2CC[C@@H](O)[C@@H](N)C2)cc2nc(-c3cc4ccccc4n3CC3CC3)n(C)c12 [GSK484]
[1]
  activity on schistosomula and adult schistosomes: potent activities

## CCOC(=O)CCNc1cc(N2CCc3ccccc3CC2)nc(-c2ccccn2)n1 [GSK-J4]
[1]
  activity on schistosomula and adult schistosomes: potent activities

## Cc1cn(CCN2CCN(c3ccccc3-c3cc(C#N)cc(C(=O)NCCCN4CCCC4)c3)CC2)c2ccccc12 [LLY-507]
[1]
  activity on schistosomula and adult schistosomes: potent activities

## CC(C)Oc1ccc(-c2c[nH]cc2CN(C)CCN)cc1 [MS023]
[1]
  activity on schistosomula and adult schistosomes: potent activities

## CCCc1cc(C)[nH]c(=O)c1CNC(=O)c1cc(-c2ccc(N3CCN(C(C)C)CC3)nc2)cc2c1cnn2C(C)C [UNC1999]
[1]
  activity on schistosomula and adult schistosomes: potent activities
